Measured values as given in patent publication US6447782B1, “Lipid extract of the Skeletonema algae” (Parfums Christian Dior, priority 1998, dated 2002).

System: 3′,5′-cAMP phosphodiesterase (PDE)
Test: Test for inhibitory activity on PDE (hydrolysis of cAMP to AMP, AMP measured by HPLC)
Type: biochemical
Details: reaction time 5 minutes, lipid extract 0.1% in DMSO, theophylline 0.2% in DMSO
Experimental: The principle of the test is based on the hydrolysis of cyclic 3′5′-adenosine monophosphate(cAMP) to adenosine monophosphate (AMP). The formation of AMP is measured by HPLC (high performance liquid chromatography) analysis.
The solutions of the reagents are prepared in 0.05 M Tris-HCl buffer at pH 7.5.
The lipid extracts to be tested are at a concentration of 0.1% in DMSO.
The same experiment is carried out with the reference active product theophylline (H. Kather, A. Scheurer, Effects of different phosphodiesterase inhibitors on the antilipolytic action of insulin in human adipocytes: Horm. Metabol. Res. 19 (1987) 379-381). Likewise, B. B. Fredholm, E. Lindger, Acta pharmacol. et toxicol., 54 (1984), pp. 64-71, “The effect of alkylxanthines and other phosphodiesterase inhibitors on adenosine receptor mediated decrease in lipolysis and cyclic AMP accumulation in rat fat cells” . . . These tests are reference tests for those skilled in the art.
The theophylline tested (SIGMA/Ref. T1633) is at a concentration of 0.2% in DMSO.
The composition of the reaction media is described below. […]
The amount of AMP formed is measured after a reaction time of 5 minutes by calculating the integration area of the AMP peak on the chromatogram produced by the HPLC apparatus (KONTRON S. A.). […]
The amount of AMP due to the action of PDE is measured after a reaction time of 5 minutes. […]

`Cn1c(=O)c2[nH]cnc2n(C)c1=O` [Theophylline, theophylline] was tested. Which “A (%) percentage inhibition of PDE” value did it give?
The value was 35%.

What about the “Integration area of AMP” value (DMSO control 40.80) of the same molecule?
The value was 26.52.
